This passage reports melting point results from a melting point compilation (Tetko et al.; mined from patent text by program, amines drawn as free bases though some values may be those of a salt).

SMILES strings stand for the structures.

On to `COc1ccc(OC)c(S(=O)(=O)c2ccc(Cl)cc2NC(=O)N[C@@H](Cc2ccc(NC(=O)c3c(Cl)cncc3Cl)cc2)C(=O)O)c1`, for which the melting point – broadly, the temperature, or range, at which the solid turns liquid – came to 168 °C.

`CCN(CC)CCc1nc(-c2ccc(OC)c(OC)c2)c2cc(OC)c(OC)cc2n1`: the melting point fell in the range of 164 to 166 °C.

With `CC(=NO)C(C)(C)NCCN(C)NC(C)(C)C(C)=NO`, the melting point fell in the range of 130 to 131 °C.

Take `O=C(OCc1ccccc1)c1ncn2c1[C@@H]1CCCN1C(=O)c1c(Cl)cccc1-2`: the melting point lay within 141 to 142 °C.

In turn, `COc1ccc(CNC(=O)c2cc([N+](=O)[O-])ccc2N)cc1` registered a melting point of 189 to 191 °C.

Regarding `O=[N+]([O-])c1ccc2nc3c(nc2c1)CCCC3`, the melting point is 175 to 178 °C.

In turn, `c1cc(NC2=NCCS2)c2occc2c1` had a melting point of 143 to 145 °C.

On to `Nc1ccc(C2=NNC(=O)CC2)cc1[N+](=O)[O-]`, for which the melting point was above 330 °C.

For `CCCOc1ccc(CCCCCCC(=O)O)cc1`, the melting point lay in the range of 49 to 50 °C.

The molecule `O=C(Nc1ccc(C2=CCN(C(=O)Nc3ccc(OCC(O)CO)cc3Cl)CC2)cc1)Nc1ccccc1F` (stereo unspecified) showed a melting point of 161 to 165 °C.

`CCOC(=O)c1cc2n(n1)CCCO2` registered a melting point of 44 to 46 °C.

Turning to `c1ccc(OCCN2CCC(CNc3nc4ccccc4s3)CC2)cc1`, the melting point worked out at 116 °C.

The molecule `CCCCSc1cc([N+](=O)[O-])cc2c1C(=O)OC2=O` had a melting point of 95 to 97 °C.

With `Cc1ccccc1-c1ccc(C(=O)N2Cc3ccc(C(=O)NCc4ccccc4)n3Cc3ccccc32)cc1C`, the melting point lay within 138 to 141 °C.

In turn, `FC(F)(F)c1cc(C(F)(F)F)cc(P(=S)(S)c2cc(C(F)(F)F)cc(C(F)(F)F)c2)c1` yielded a melting point of 72 to 74 °C.

`N#Cc1ccc(Cn2nc(-c3ccccc3O)nc2-c2ccccc2O)cc1` returned a melting point of 147 to 149 °C.

`Nc1cc(Cl)c(F)cc1-c1cccc(Cl)c1` yielded a melting point of 58 °C.

For the molecule `CCC(OCCc1ccc(-c2ccc(Cl)cc2)cc1)C(=O)O` (stereo unspecified), the melting point was in the range of 90 to 92 °C.

`Cc1cc(Cl)cc2c1OCCCC2NS(C)(=O)=O` (stereo unspecified) gave a melting point of 154 to 156 °C.

`CCCCn1c(=O)n(C2OC(CO)C(O)C2O)c2nc(N)[nH]c(=O)c21` (stereo unspecified) had a melting point above 230 °C.

In turn, `COc1cccc2cc(C(=O)c3ccc(Cl)c(S(N)(=O)=O)c3)oc12` registered a melting point of 167 to 171 °C.

Take `COc1cc(C)c2c(c1)C(C(=O)O)=CCC2`: the melting point lay in the range of 149 to 150 °C.

For the molecule `CCCc1c(OCCCCCCc2ccc3cc(OCc4ccccc4)c(OCc4ccccc4)cc3c2)ccc(C(=O)OCc2ccccc2)c1O`, the melting point lay within 94 to 97 °C.

Consider `O=C(O)CNCCOc1cccc(CCNS(=O)(=O)c2ccc(Cl)cc2)c1`, for which the melting point lay within 205 to 207 °C.

The molecule `COc1ccc(-c2cc(C(N)=O)c(=O)n(CC3CC3)n2)cc1` registered a melting point of 182 to 183 °C.

With `N#Cc1c(N)nc2ccc(N3CCN(Cc4ccccc4)CC3)cc2c1N=Cc1ccccc1`, the melting point stood at 202 °C.

With `COc1ccc2c(c1)C(=O)c1c-2c(N2CCN(CC3CO3)CC2)nc2ccccc12` (stereo unspecified), the melting point lay within 138 to 139 °C.

The molecule `Cc1cc(-c2ccc(Cl)cc2)cn2cc(C(=O)NC(Cc3ccc(OCc4ccccc4)cc3)C(=O)O)nc12` (stereo unspecified) displayed a melting point of 249 to 250 °C.

For the molecule `CC12CC(N3CCC4(CC3)OCCO4)C(O)CC1CCC1C2CCC2(C)C(O)C(N3CCCC3)CC12` (stereo unspecified), the melting point fell in the range of 184 to 187 °C.

`Cc1c(NC(=O)c2ccc(-c3ccc(Cl)s3)cc2F)ccc2cc(CN3CCCC3)cnc12`: the melting point lay in the range of 160 to 162 °C.

`COC(C)=CC(=O)Nc1cccc([N+](=O)[O-])c1` registered a melting point of 187 °C.

Turning to `Oc1ccccc1-c1ccc[nH]1`, the melting point lay in the range of 100 to 101 °C.

In the case of `CCCC1(C)C(=O)N(COC(=O)c2c(Cl)cccc2Cl)S(=O)(=O)N1C` (stereo unspecified), the melting point lay in the range of 93 to 95 °C.

Consider `COc1ccc2c(c1)-c1noc(N3CCNCC3)c1CC2`, for which the melting point is 86 to 88 °C.

In the case of `Cc1cc(C)cc(CCCn2c(=O)[nH]c3cc(Cl)cc(Cl)c3c2=O)c1`, the melting point fell in the range of 205 to 208 °C.

Molecule `O=C(O)Cc1ccc(C(=O)c2ccccc2)s1` displayed a melting point of 144 °C.

In turn, `CC1=Nc2cc3c(cc2C1(C)C)N=C(C)C3(C)C` returned a melting point of 190 to 195 °C.

As to `Cc1cc(-c2ccc(C#N)cc2)c(C)n1Cc1cnc(Cl)c(COC(=O)CCC(=O)O)c1`, the melting point is 201 to 204 °C.

As to `O=C(NCc1ccc(F)cc1)c1ccnc(N2CCN(Cc3ccncc3)C2=O)c1`, the melting point lay within 161 to 163 °C.

In turn, `CN(C)CCCn1c(-c2ccccc2)cc2ccccc21` displayed a melting point of 52 °C.

On to `CN1CCC(c2c[nH]c3ccc(NC(=O)c4ccc(C#N)cc4)nc23)CC1`, for which the melting point was in the range of 129 to 134 °C.

For the molecule `CC(C)C(=O)N1CCN(c2ccc(NC(=O)c3ccccn3)cc2Cl)CC1`, the melting point lay within 156 to 158 °C.

As to `CC1(C)CC(=O)c2c(NC3CC3)sc(-c3cc[nH]n3)c2C1`, the melting point is 232 to 235 °C.

In turn, `CCOC(=O)c1cc(CCc2cc3c(s2)-n2c(C)nnc2CN=C3c2ccccc2Cl)ccc1CC(=O)Nc1cccc(/C=C/c2nc(C3CCC3)cs2)c1` registered a melting point of 118 to 120 °C.

The molecule `O=C(NCc1ccc([N+](=O)[O-])cc1)N(c1ccccc1)c1ccccc1` registered a melting point of 137 to 138 °C.

Take `CN(C)Cc1nnc2n1-c1sc(Cl)cc1C(c1ccccc1[N+](=O)[O-])=NC2`: the melting point fell in the range of 234 to 236 °C.

Regarding `CC[C@@H]1NC(=O)C[C@]1(C)O`, the melting point fell in the range of 87 to 111 °C.

Molecule `CCOC(=O)C12CCNC(=O)CC1COC2=O` (stereo unspecified) yielded a melting point of 137 to 138 °C.

As to `COC(COC(=O)C1=C(C)NC2=C(C(=O)CNC2)C1c1cccc(Cl)c1Cl)c1ccccc1` (stereo unspecified), the melting point was 150 to 153 °C.

Molecule `COc1cccc(N2CC(=O)N(C)C(=O)N2)c1` yielded a melting point of 120 to 122 °C.

As to `O=C(O)c1cc(C(=O)O)c(C(O)=NCO)cc1C(O)=NCO`, the melting point stood at 300 °C.

`CN1CCC(OC2c3ccccc3C(=O)N2c2ccc3ccc(Cl)nc3n2)CC1` (stereo unspecified) came in with a melting point of 204 °C.

Regarding `CC(=O)Nc1ccc2c(c1)OCC2`, the melting point was in the range of 115 to 118 °C.

`O=C1CCC(N2C(=O)c3cccc(CNC(=O)Nc4ccccn4)c3C2=O)C(=O)N1` (stereo unspecified) showed a melting point above 260 °C.

As to `CCCCCCCCOc1ccc(C(=O)NNc2nc(NNC(=O)c3ccc(OCCCCCCCC)cc3O)nc(N(CCC)CCC)n2)c(O)c1`, the melting point was in the range of 195 to 196 °C.

Consider `O=C(Nc1ccccc1Br)OCc1cn(-c2cc3cc(C(=O)O)c(=O)[nH]c3cc2C(F)(F)F)cn1`, for which the melting point fell in the range of 145 to 147 °C.

In the case of `N#CC(Cc1cccc(F)c1)n1nnc2cc3c(cc2c1=O)OC1CCCN1C3=O` (stereo unspecified), the melting point fell in the range of 182 to 184 °C.

`C=C(c1cc(Cl)ccc1N1CCCCC1)C(C(N)=O)c1ccc(C(=O)OCC)cc1` (stereo unspecified): the melting point lay in the range of 142 to 145 °C.

With `COc1cn(-c2cccc(C(F)(F)F)c2)nc(-n2ccnc2-c2ccccc2)c1=O`, the melting point was in the range of 167 to 170 °C.

The molecule `O=C(Nc1nc(C2CC2)no1)C1c2ccccc2Oc2ccccc21` returned a melting point of 275 °C.

`Nc1cccnc1-c1ccccc1`: the melting point lay within 59 to 62 °C.

The molecule `CN1C(=O)CCC2(C)C3CCC4(C)C(Oc5ccc([N+](=O)[O-])cc5)CCC4C3CCC12` (stereo unspecified) showed a melting point of 183 to 184 °C.

The molecule `CN(C)c1ccc(NC(=O)N(Cc2ccccc2)C[C@H]2CC[C@H](CN(Cc3ccccc3)C(=O)Nc3ccc(N(C)C)cc3)CC2)cc1` gave a melting point of 142 to 144 °C.

`O=C(NCC1CC1)N1CC(Oc2ccc(C(F)(F)F)cc2)C1` yielded a melting point of 132 to 133 °C.

For the molecule `N#Cc1cccc(Cc2c(-c3ccc(OC(F)F)c(OC4CC4)c3)[nH]c3cn[nH]c(=O)c23)c1`, the melting point lay in the range of 130 to 135 °C.

In turn, `Cc1c(N)cc(C(C)(C)C)c2c1CC(C)(C)O2` registered a melting point of 115 to 116 °C.

Molecule `OCc1cnc2sc3c(n12)CCCC3` yielded a melting point of 182 to 183 °C.

As to `O=C(NC(=O)N(SC(Cl)(Cl)Cl)c1ccc(Oc2ccc(C(F)(F)F)cc2Cl)cc1)c1ccccc1Cl`, the melting point lay within 68 to 71 °C.

Take `O=c1[nH]c2ccc(S(=O)CCN3CCC(Cc4ccccc4F)CC3)cc2o1` (stereo unspecified): the melting point was 179 to 181 °C.

The molecule `COc1cc2nc(N3CCc4ccc([N+](=O)[O-])cc4C3)nc(N)c2cc1OC` displayed a melting point of 135 to 137 °C.

Molecule `O=S(=O)(c1ccc(F)cc1)N1CCCC1c1ccc(C(F)(F)F)cc1` (racemic) showed a melting point of 114 °C.

Turning to `N#CC=Cc1ccc([N+](=O)[O-])cc1`, the melting point turned out to be 112 °C.

In the case of `CCCCN(C(=O)C1CCCCC1)c1nn(C)cc1Cl`, the melting point is 110 to 112 °C.

The molecule `CCOc1nc(N)c2ncn(C3CCCCC3)c2n1` displayed a melting point of 134 to 136 °C.

For the molecule `Cc1ccc(-c2ccc3c(c2)C=C(C(=O)Nc2ccc(CN(C)C4CCSCC4)cc2)CO3)cc1`, the melting point was 169 to 171 °C.

With `NNC(=S)N1CCN(c2nc3cccccc-3n2)CC1`, the melting point lay in the range of 224 to 228 °C.

`CCCCn1c(=O)c2c(ncn2S(=O)(=O)CC23CCC(CC2=O)C3(C)C)n(CCCC)c1=O` (stereo unspecified) came in with a melting point of 55 to 56 °C.

`COc1cc(O)c2c(c1)CC(C(=O)Nc1ccc(CC3SC(=O)NC3=O)cc1)SCC2=O` (stereo unspecified) gave a melting point of 131 to 134 °C.

For the molecule `Nc1ccc(N=Nc2ccc([N+](=O)[O-])c(C(F)(F)F)c2)cc1`, the melting point came out at 136 °C.

The molecule `Cc1ccc(CSc2nc(N)nc3nc[nH]c23)cc1` returned a melting point of 240 to 242 °C.

For the molecule `CCC1(CC)CC(c2ccc(OC)c(OC)c2)=NN(C2CCN(C(=O)c3ccccc3OC)CC2)C1=O`, the melting point was 160 to 162 °C.

Take `COc1ccc2ccn3c(C(F)(F)F)nnc3c2c1`: the melting point lay within 152 to 154 °C.

Turning to `COc1ccc(CN2C(CN3CCOCC3)=Cc3ccsc3S2(=O)=O)cc1`, the melting point is 112 to 114 °C.

The molecule `O=C(Nc1ccc(-c2ccccc2)cc1)c1ccc2n1Cc1ccccc1N(C(=O)COc1ccc(Cl)cc1)C2` showed a melting point of 201 to 202 °C.

On to `CC(c1cc2cc(F)ccc2s1)N(O)C(N)=O` (stereo unspecified), for which the melting point was 149 to 153 °C.

In turn, `CC(O)C(Cc1cc(C(C)(C)C)c(O)c(C(C)(C)C)c1)C(C)O` (stereo unspecified) yielded a melting point of 102 to 105 °C.
